Test results: US12650422B2, “Utility of protein in the prediction of in vivo effects” (Qualyst Transporter Solutions, LLC, priority 2014, dated 2026)
Read-outs that look alike come from different tables or passages of the source.

Columns and labels:
[1] = tested on: Rat Hepatocytes; test: Hepatic intracellular concentration (ICC) in rat hepatocytes, observed vs predicted; format: in vitro ADME; conditions: for Observed ICC (uM) BSA: one-step method with BSA
Text: The hepatic intracellular concentration (ICC) of a compound, which reflects the balance of the uptake, metabolism, and efflux out of the cell, can also be determined in the absence and presence of protein.

[2] = tested on: sandwich-cultured rat hepatocytes; test: Intrinsic biliary clearance in sandwich-cultured rat hepatocytes; conditions: for Observed Cl (ml/min/Kg) BSA: measured in the presence of BSA
Text: Representative calculations that can be employed in accordance with the presently disclosed subject matter include the calculations of a biliary excretion index and a biliary clearance value. […] In some embodiments, the BEI is a calculation of the uptake and excretion of the candidate compound as follows: 100%×{(uptake in the culture with intact bile canaliculi minus uptake within hepatocytes only in the Ca^2+-free culture) divided by (uptake in the culture with intact bile canaliculi)}. In some embodiments, the biliary clearance calculation is performed as follows: (uptake in the culture with intact bile canaliculi minus uptake within hepatocytes only in the Ca^2+-free culture) divided by (time of incubation multiplied by the concentration of the candidate compound in the buffer medium). In some embodiments, a biliary clearance value can be calculated as the ratio of the mass in the bile canaliculi and the area under the curve (AUC) in culture medium, wherein the AUC represents the integral of candidate compound in the medium from time 0 to time T (time can be measure in any desired units, and is usually measured in minutes). Indeed, the term AUC can refer to the following equation: […]
The data for each compound was determined in sandwich-cultured rat hepatocytes at a concentration of 1 μM and an exposure time of 10 minutes in buffer (no protein), in buffer with 4% BSA, or in rat serum.
This latter method is the current industry standard.

[3] = target: 4% BSA (Bos taurus, UniProt P02769); test: Free fraction by equilibrium dialysis in 4% BSA; format: in vitro ADME; conditions: bovine, DPDPE line: 1 uM
Chain of 4% BSA (P02769 25-607): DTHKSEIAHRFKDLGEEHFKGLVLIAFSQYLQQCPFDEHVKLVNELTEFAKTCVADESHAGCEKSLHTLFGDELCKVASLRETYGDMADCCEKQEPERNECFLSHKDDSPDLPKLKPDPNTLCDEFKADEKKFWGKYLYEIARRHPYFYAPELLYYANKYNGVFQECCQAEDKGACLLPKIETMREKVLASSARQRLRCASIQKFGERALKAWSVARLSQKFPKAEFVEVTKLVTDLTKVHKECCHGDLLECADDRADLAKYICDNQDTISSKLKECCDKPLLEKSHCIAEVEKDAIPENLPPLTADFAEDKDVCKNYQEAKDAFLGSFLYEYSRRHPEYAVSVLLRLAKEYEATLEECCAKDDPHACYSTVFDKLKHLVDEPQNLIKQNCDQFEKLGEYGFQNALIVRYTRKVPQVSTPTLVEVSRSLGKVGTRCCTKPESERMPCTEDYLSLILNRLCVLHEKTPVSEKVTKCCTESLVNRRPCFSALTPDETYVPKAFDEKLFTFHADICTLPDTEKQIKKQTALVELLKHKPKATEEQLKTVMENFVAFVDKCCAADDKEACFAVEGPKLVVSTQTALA
Text: (§5) The free fraction is the amount of compound that is considered thermodynamically free in solution compared to the amount which is considered to be thermodynamically bound to the albumin proteins.

[4] = Free fraction by equilibrium dialysis in serum; format: in vitro ADME; conditions: DPDPE line: 1 uM; for fraction unbound: serum
Text: as §5

[5] = target: CYP2C9 (Homo sapiens, UniProt P11712)
Chain of CYP2C9 (P11712 whole entry): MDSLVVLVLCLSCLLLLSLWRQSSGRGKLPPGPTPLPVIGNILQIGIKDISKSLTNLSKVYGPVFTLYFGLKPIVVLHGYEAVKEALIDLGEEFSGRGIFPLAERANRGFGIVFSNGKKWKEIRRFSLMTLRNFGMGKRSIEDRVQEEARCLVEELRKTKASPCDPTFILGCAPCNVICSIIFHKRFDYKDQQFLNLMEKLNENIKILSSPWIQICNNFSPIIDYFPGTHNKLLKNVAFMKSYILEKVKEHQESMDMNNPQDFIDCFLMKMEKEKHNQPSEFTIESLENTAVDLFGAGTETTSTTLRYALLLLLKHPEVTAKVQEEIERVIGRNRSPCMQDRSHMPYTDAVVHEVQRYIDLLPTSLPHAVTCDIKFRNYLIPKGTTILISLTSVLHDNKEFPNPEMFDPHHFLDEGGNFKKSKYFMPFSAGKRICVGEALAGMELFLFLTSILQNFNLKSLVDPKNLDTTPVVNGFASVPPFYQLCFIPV
Experimental: (§1) Sandwich-Cultured Hepatocytes (SCH) were prepared using freshly isolated hepatocytes or cryopreserved hepatocytes. Freshly isolated hepatocytes were plated on 24-well cell culture plates, rinsed and fed with the appropriate species specific Qualyst Transporter Solutions (QTS, Durham, North Carolina, United States of America) propriety culture medium (QualGro™). Cells were maintained in the appropriate species specific medium until consumed in studies.
(§2) Cryopreserved hepatocytes were thawed following manufacturer's thawing instructions. Cryopreserved hepatocytes were subsequently suspended in QTS propriety hepatocyte seeding medium (QualGro™ Seeding Medium) at a density of 0.7-0.8 million viable cells/mL onto BioCoat® 24-well cell culture plates. Following plating, cells were allowed to attach for 2-4 hours, rinsed and fed with warm (37° C.) seeding medium. Eighteen to 24 hours later, cells were fed and overlaid with the appropriate species specific QTS propriety culture medium (QualGro™) supplemented with extracellular matrix (ECM), Matrigel® (0.25 mg/mL). Cells were maintained in QualGro™ Hepatocyte Culture Medium until consumed in studies.
(§3) Cells were cultured as described above through day 6 of culture. On day 7 of culture, spent culture medium was aspirated and replaced with HBSS incubation solution with or without 4% bovine serum albumin (BSA). […] In situ incubations were performed in cell culture incubators (37° C.; 5% CO2; 100% humidity) shaking at 120 rpm for 20-30 minutes. Following the incubation period, incubation solutions were collected and stored at −80° C. until processed for bioanalysis.
(§4) In situ incubations were analyzed for the detection of P450 mediated metabolite formation of hydroxymidazolam from midazolam and hydroxyibuprofen from ibuprofen. Briefly, a volume of 300 μL of internal standard solution (methanol containing 25 nM triazolam and d3-ibuprofen) and a volume of 100 μL of HBSS or HBSS plus 4% BSA were added to a protein precipitation plate (Millipore MDRPNP4; EDM Millipore, Billerica, Massachusetts, United States of America) stacked on a 96 deep well block. The plate was allowed to shake for 1 to 2 minutes prior to centrifugation for collection of the filtered supernatant. The sample filtrate was evaporated to dryness and the samples were reconstituted in 200 μL sample diluent, 40/60 methanol/10 mM ammonium acetate and mixed for at least 20 min on a plate shaker. The reconstituted samples were transferred to a Millipore 0.45 μm filter plate (Millipore MSHVN45) and filtered into a Costar 3957 plate by centrifugation and sealed with a silicone capmat prior to LC-MS/MS analysis.

[6] = tested on: CYP3A4
Experimental: as §1, §2, §3, §4

[7] = tested on: human hepatocytes; test: Intracellular concentration in human hepatocytes in the presence of albumin protein; format: in vitro ADME
Text: The observed effects of protein on the intracellular concentration, could lead to an over- or under-prediction of a compound's effect, drastically changing the expected clinical outcome. […] However, the intracellular concentrations never achieved high enough levels to result in hepatotoxic effects. […] Since the effect of protein was unanticipated and not predictable, it is desirable to expose the cell to protein during the experiment.

[8] = cited from earlier work
[9] = HBSS value adjusted with free fraction, DPDPE 10 uM
[10] = absence of protein (HBSS), adjusted with free fraction of Table 1, 1 μM

Compound	Predicted ICC (uM) HBSS [1, 10] [µM]	Observed ICC (uM) BSA ([1]; 1 μM) [µM]	fraction unbound [3]	Intrinsic Biliary Clearance, BSA [2] [mL/min/kg]	Intrinsic Biliary Clearance, No Protein ([2]; rat) [mL/min/kg]	Predicted Cl (ml/min/Kg) HBSS ([2]; rat, 10 min, 1 μM) [mL/min/kg]	Intrinsic Biliary Clearance, Serum ([2]; rat)	fraction unbound [4]	also measured
CC1(C)SSC(C)(C)[C@@H](NC(=O)[C@@H](N)Cc2ccc(O)cc2)C(=O)NCC(=O)N[C@@H](Cc2ccccc2)C(=O)N[C@H]1C(=O)O [DPDPE]	1.42	1.98	–	–	–	–	–	–	Predicted ICC (uM) HBSS [1, 9]: 13.63 µM; Observed ICC (uM) BSA ([1]; DPDPE 10 uM): 15.51 µM; Predicted Cl (ml/min/Kg) HBSS [2, 9]: 4.24 mL/min/kg; Predicted Cl (ml/min/Kg) HBSS ([2]; measured in absence of protein (HBSS), adjusted with free fraction of Table 1, 1 μM): 5.69 mL/min/kg; Observed Cl (ml/min/Kg) BSA ([2]; 1 μM): 2.51 mL/min/kg; Observed Cl (ml/min/Kg) BSA ([2]; DPDPE 10 uM): 3.32 mL/min/kg; Predicted biliary clearance compared with observed biliary clearance ([2]; two-step prediction vs measurement with BSA, DPDPE at 1 μM): over-estimated
C[C@H]1O[C@@H](O[C@H]2[C@@H](O)C[C@H](O[C@H]3[C@@H](O)C[C@H](O[C@H]4CC[C@@]5(C)[C@H](CC[C@@H]6[C@@H]5C[C@@H](O)[C@]5(C)[C@@H](C7=CC(=O)OC7)CC[C@]65O)C4)O[C@@H]3C)O[C@@H]2C)C[C@H](O)[C@@H]1O [Digoxin]	1.59	1.29	0.852	9.25	10.4	8.85	5.12	–	Free Fraction in Serum [4]: 0.727
OC(Cn1cncn1)(Cn1cncn1)c1ccc(F)cc1F [Fluconazole]	–	–	–	–	–	–	–	–	CYP2C9 enzyme activity reduced to % of control [5]: 24.4-45.1 % of control
CC(=O)N1CCN(c2ccc(OCC3COC(Cn4ccnc4)(c4ccc(Cl)cc4Cl)O3)cc2)CC1 (stereo not drawn) [Ketoconazole]	–	–	–	–	–	–	–	–	CYP3A4/5 Mean % Remaining ([6]; 4% BSA, inhibitor 0.0500 μM): 54.6%; CYP3A4/5 Mean % Remaining ([6]; 4% BSA, inhibitor 0.250 μM): 40.8%; CYP3A4/5 Mean % Remaining ([6]; No BSA, inhibitor 0.050 μM): 45.1%; CYP3A4/5 Mean % Remaining ([6]; No BSA, inhibitor 0.250 μM): 24.4%
CN(Cc1cnc2nc(N)nc(N)c2n1)c1ccc(C(=O)N[C@@H](CCC(=O)O)C(=O)O)cc1 [Methotrexate]	0.48	0.47	0.428	0.19	0.54	0.23	0.91	0.499	–
O=C(O)C[C@H](O)C[C@H](O)/C=C/c1c(C2CC2)nc2ccccc2c1-c1ccc(F)cc1 [Pitavastatin]	–	–	0.047	140	52	2.44	277.50	0.004	Predicted biliary clearance compared with observed biliary clearance [2]: under-estimated by a significant amount
CC[C@H](C)C(=O)O[C@H]1C[C@H](O)C=C2C=C[C@H](C)[C@H](CC[C@@H](O)C[C@@H](O)CC(=O)O)[C@H]21 [Pravastatin]	–	–	0.734	6.47	7.35	5.39	2.06	0.554	–
CC(C)c1nc(N(C)S(C)(=O)=O)nc(-c2ccc(F)cc2)c1/C=C/[C@@H](O)C[C@@H](O)CC(=O)O [Rosuvastatin]	3.09	6.81	0.136	164	53.1	7.22	–	–	Predicted biliary clearance compared with observed biliary clearance [2]: under-estimated by a significant amount
CCCCC(=O)N(Cc1ccc(-c2ccccc2-c2nnn[nH]2)cc1)[C@H](C(=O)O)C(C)C [Valsartan]	0.44	0.22	0.075	3.06	4.73	0.36	1.39	0.004	–
CCCc1nc2c(C)cc(-c3nc4ccccc4n3C)cc2n1Cc1ccc(-c2ccccc2C(=O)O)cc1 [telmisartan]	–	–	–	–	–	–	–	–	Intracellular concentration in presence of protein greater than predicted from protein-free data adjusted by free fraction [7]: 100 ×; Toxicity associated with its use (in vivo data) [8]: no known toxicity
